Assay results taken from ChEMBL document CHEMBL3351865, “N-aryl-2-aminobenzimidazoles: novel, efficacious, antimalarial lead compounds” (J Med Chem, 2014).
≈ marks a conversion by molar mass, not a printed value.

Assays:
Plasmodium falciparum [1] = experiment: microbe, parasite or virus in culture; details: K1
Description: Antiplasmodial activity against Plasmodium falciparum K1 by SYBR-green based assay

in vitro [2] = details: human, THP-1 cells
Description: Selectivity index, ratio of IC50 for human THP1 cells to IC50 for Plasmodium falciparum

Plasmodium falciparum [3] = experiment: microbe, parasite or virus in culture; details: NF54
Description: Antiplasmodial activity against Plasmodium falciparum NF54 by SYBR-green based assay

Plasmodium falciparum [4] = experiment: microbe, parasite or virus in culture; details: SB1-A6
Description: Antiplasmodial activity against Plasmodium falciparum SB1-A6 harboring mutations conferring drug-resistance by SYBR-green based assay

Plasmodium falciparum [5] = experiment: microbe, parasite or virus in culture; details: 7G8
Description: Antiplasmodial activity against Plasmodium falciparum 7G8 harboring mutations conferring drug-resistance by SYBR-green based assay

Plasmodium falciparum [6] = experiment: microbe, parasite or virus in culture; details: Dd2
Description: Antiplasmodial activity against Plasmodium falciparum Dd2 harboring mutations conferring drug-resistance by SYBR-green based assay

in vitro [7] = details: human, plasma
Description: Unbound fraction in human plasma

physchem [8] = details: buffer, pH 7.4
Description: Lipophilicity, logD of the compound at pH 7.4

in vitro [9] = details: human, microsomes
Description: Clearance in human microsomes

Plasmodium falciparum [10] = experiment: microbe, parasite or virus in culture; details: W2
Description: Antiplasmodial activity against Plasmodium falciparum W2 harboring mutations conferring drug-resistance by SYBR-green based assay

in vitro [11] = details: human, hepatocytes
Description: Clearance in human hepatocytes assessed per million cells

[12] = biological target: Voltage-gated inwardly rectifying potassium channel KCNH2 (Homo sapiens, UniProt Q12809)
physchem [13] = details: buffer
Description: Aqueous solubility of the compound

in vivo [14] = details: mouse, 50 mg/kg
Plasmodium berghei [15] = details: dose 50 mg/kg
Description: Antiplasmodial activity against Plasmodium berghei infected in mouse assessed as increase in mean survival days at 50 mg/kg treated with four once daily doses

Plasmodium berghei [16] = experiment: animal or person; details: in Mus musculus, read-out: INH
Description: Antiplasmodial activity against Plasmodium berghei infected in mouse assessed as reduction in parasitemia at 50 mg/kg treated with four once daily doses

in vivo [17] = details: mouse, 50 mg/kg; remark: listed apart in the source
Description: Half life in Plasmodium berghei infected mouse at 50 mg/kg treated with four once daily doses

in vivo [18] = details: mouse, plasma, 50 mg/kg
Description: AUClast in Plasmodium berghei infected mouse at 50 mg/kg treated with four once daily doses

[19] = AUClast in Plasmodium berghei infected mouse at 100 mg/kg treated with four once daily doses; type: ADME, organism-based; design: time 0 - last, dose 100 mg/kg; details: plasma
Plasmodium berghei [20] = experiment: animal or person; details: in Mus musculus, read-out: INH; remark: listed apart in the source
Description: Antiplasmodial activity against Plasmodium berghei infected in mouse assessed as reduction in parasitemia at 30 mg/kg treated with four once daily doses

Plasmodium berghei [21] = details: dose 30 mg/kg
Description: Antiplasmodial activity against Plasmodium berghei infected in mouse assessed as increase in mean survival days at 30 mg/kg treated with four once daily doses

[22] = Cmax in Plasmodium berghei infected mouse at 100 mg/kg treated with four once daily doses; type: ADME, organism-based; design: dose 100 mg/kg; details: in vivo
Plasmodium berghei [23] = experiment: Antiplasmodial activity against Plasmodium berghei infected in mouse assessed as reduction in parasitemia at 100 mg/kg treated with four once daily doses; type: functional
in vivo [24] = details: mouse, 30 mg/kg
Description: Half life in Plasmodium berghei infected mouse at 30 mg/kg treated with four once daily doses

in vivo [25] = details: mouse, plasma, 30 mg/kg
Description: AUClast in Plasmodium berghei infected mouse at 30 mg/kg treated with four once daily doses

Plasmodium berghei [26] = experiment: Antiplasmodial activity against Plasmodium berghei infected in mouse assessed as increase in mean survival days at 100 mg/kg treated with four once daily doses; type: functional
in vivo [27] = details: mouse, 30 mg/kg; remark: listed apart in the source
[28] = Half life in Plasmodium berghei infected mouse at 100 mg/kg treated with four once daily doses; type: ADME, organism-based; design: dose 100 mg/kg; details: in vivo
in vivo [29] = details: rat, iv, 1 mg/kg
Description: Volume of distribution at steady state in rat at 1 mg/kg, iv

in vivo [30] = details: rat, po, 5 mg/kg
in vivo [31] = details: rat, po, 5 mg/kg; remark: listed apart in the source
Description: Half life in rat at 5 mg/kg, po

in vivo [32] = details: rat, iv, 1 mg/kg; remark: listed apart in the source
Description: Half life in rat at 1 mg/kg, iv

in vivo [33] = details: rat, plasma, iv, 1 mg/kg
in vivo [34] = details: rat, iv, 1 mg/kg; remark: listed apart in the source
Description: Clearance in rat at 1 mg/kg, iv

in vivo [35] = details: rat, po, 5 mg/kg; remark: listed apart in the source

Voltage-gated inwardly rectifying potassium channel KCNH2, sequence (Q12809 whole entry): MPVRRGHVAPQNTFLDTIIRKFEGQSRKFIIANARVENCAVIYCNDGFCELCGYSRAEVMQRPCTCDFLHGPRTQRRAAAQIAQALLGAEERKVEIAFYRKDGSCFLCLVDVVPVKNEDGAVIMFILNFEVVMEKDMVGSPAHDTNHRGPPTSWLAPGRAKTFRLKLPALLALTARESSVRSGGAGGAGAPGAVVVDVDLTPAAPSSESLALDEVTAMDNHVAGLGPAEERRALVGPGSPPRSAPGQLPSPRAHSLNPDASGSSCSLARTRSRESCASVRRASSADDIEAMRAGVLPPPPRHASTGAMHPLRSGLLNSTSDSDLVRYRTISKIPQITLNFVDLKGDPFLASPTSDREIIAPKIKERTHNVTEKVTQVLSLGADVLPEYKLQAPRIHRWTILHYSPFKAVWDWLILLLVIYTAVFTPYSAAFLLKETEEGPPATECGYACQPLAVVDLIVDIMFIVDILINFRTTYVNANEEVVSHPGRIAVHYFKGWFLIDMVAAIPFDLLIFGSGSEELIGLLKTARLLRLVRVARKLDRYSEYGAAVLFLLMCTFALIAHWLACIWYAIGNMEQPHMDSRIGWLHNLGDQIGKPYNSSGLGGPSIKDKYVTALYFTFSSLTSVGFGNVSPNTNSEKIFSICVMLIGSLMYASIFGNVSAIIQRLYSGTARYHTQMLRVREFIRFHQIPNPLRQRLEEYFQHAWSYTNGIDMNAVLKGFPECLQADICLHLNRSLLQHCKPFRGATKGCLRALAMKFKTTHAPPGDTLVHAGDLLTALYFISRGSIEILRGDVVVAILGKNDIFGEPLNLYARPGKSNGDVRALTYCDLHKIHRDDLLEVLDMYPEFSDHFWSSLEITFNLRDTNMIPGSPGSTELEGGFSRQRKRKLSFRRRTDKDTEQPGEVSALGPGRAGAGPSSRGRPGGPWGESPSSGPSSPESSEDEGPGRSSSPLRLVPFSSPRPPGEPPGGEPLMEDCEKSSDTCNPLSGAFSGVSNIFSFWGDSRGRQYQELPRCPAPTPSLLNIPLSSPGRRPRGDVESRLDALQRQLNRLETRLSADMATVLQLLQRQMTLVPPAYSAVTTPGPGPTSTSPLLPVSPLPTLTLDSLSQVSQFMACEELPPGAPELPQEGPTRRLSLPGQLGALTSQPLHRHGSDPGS

SMILES: CN1CCN(c2cc3[nH]c(Nc4ccc(C(F)(F)F)cn4)nc3cn2)CC1
- IC50 (Plasmodium falciparum [1]): 0.054 µM
- selectivity ratio (in vitro [2]): 1030
- IC50 (Plasmodium falciparum [3]): 0.029 µM

SMILES: O=C1C(O)=C([C@H]2CC[C@H](c3ccc(Cl)cc3)CC2)C(=O)c2ccccc21 [ATOVAQUONE]
- IC50 (Plasmodium falciparum [1]): 0.0023 µM
- IC50 (Plasmodium falciparum [4]): > 2 µM
- IC50 (Plasmodium falciparum [5]): 0.0023 µM
- IC50 (Plasmodium falciparum [6]): 0.002 µM

SMILES: Cc1ccc(Nc2nc3ccc(N4CCN(C)CC4)cc3[nH]2)nc1
- fraction unbound (in vitro [7]): 0.183
- logD (physchem [8]): 2.2
- IC50 (Plasmodium falciparum [1]): 0.27 µM
- microsomal CLint (in vitro [9]): 4.8 µL/min/mg
- IC50 (Plasmodium falciparum [10]): 0.437 µM
- hepatocyte CLint (in vitro [11]): 19.5 µL/min/1e6 cells
- IC50 (Plasmodium falciparum [4]): 0.0862 µM
- selectivity ratio (in vitro [2]): > 385
- IC50 (Plasmodium falciparum [5]): 0.307 µM
- IC50 [12]: 12.7 µM
- IC50 (Plasmodium falciparum [3]): 0.13 µM
- IC50 (Plasmodium falciparum [6]): 0.201 µM
- solubility (physchem [13]): 1170 µM (≈ 377 µg/mL)

SMILES: CN1C2CCC1CC(c1ccc3nc(Nc4ccc(C(F)(F)F)cn4)[nH]c3c1)C2 (centres undefined)
- IC50 (Plasmodium falciparum [1]): 0.2 µM
- selectivity ratio (in vitro [2]): 308
- IC50 (Plasmodium falciparum [3]): 0.094 µM

SMILES: CN1CCN(c2ccc3nc(Nc4ccc(C(F)(F)F)nc4)[nH]c3c2)CC1
- IC50 (Plasmodium falciparum [1]): > 0.5 µM
- selectivity ratio (in vitro [2]): > 500
- IC50 (Plasmodium falciparum [3]): > 0.5 µM

SMILES: CN1CCN(c2ccc3nc(Nc4ccccn4)[nH]c3c2)CC1
- IC50 (Plasmodium falciparum [1]): > 0.5 µM
- selectivity ratio (in vitro [2]): > 86
- IC50 (Plasmodium falciparum [3]): > 0.5 µM

SMILES: CN1CCC(c2ccc3nc(Nc4ccc(C(F)(F)F)cn4)[nH]c3c2)C1 (centres undefined)
- IC50 (Plasmodium falciparum [1]): 0.085 µM
- IC50 (Plasmodium falciparum [3]): 0.053 µM

SMILES: Brc1ccc(Nc2nc3ccc(N4CCNCC4)cc3[nH]2)nc1
- IC50 (Plasmodium falciparum [1]): 0.278 µM
- Cmax (in vivo [14]): 25.5 µM
- MSD (Plasmodium berghei [15]): 11 days
- selectivity ratio (in vitro [2]): 961
- inhibition in vivo at 50 mg/kg (Plasmodium berghei [16]): 99.9%
- IC50 (Plasmodium falciparum [3]): 0.039 µM
- half-life (in vivo [17]): 4.5 h
- AUC(0-t) (in vivo [18]): 202 µM·h

SMILES: Brc1ccc(Nc2nc3ccc(N4CCOCC4)cc3[nH]2)nc1
- IC50 (Plasmodium falciparum [1]): > 0.5 µM
- selectivity ratio (in vitro [2]): > 100
- IC50 (Plasmodium falciparum [3]): > 0.5 µM

SMILES: Cc1nc(Nc2nc3ccc(C4CCN(C)CC4)cc3[nH]2)cc(C2CC2)c1F
- IC50 (Plasmodium falciparum [1]): 0.03 µM
- selectivity ratio (in vitro [2]): 692
- IC50 (Plasmodium falciparum [3]): 0.013 µM

SMILES: CCc1nc(N)nc(N)c1-c1ccc(Cl)cc1 [PYRIMETHAMINE]
- IC50 (Plasmodium falciparum [4]): 0.0109 µM

SMILES: CN1CCN(C(=O)c2ccc3nc(Nc4ccc(Br)cn4)[nH]c3c2)CC1
- IC50 (Plasmodium falciparum [1]): > 0.5 µM
- selectivity ratio (in vitro [2]): 548
- IC50 (Plasmodium falciparum [3]): 0.45 µM

SMILES: CN1CCN(c2nc3[nH]c(Nc4ccc(Br)cn4)nc3cc2F)CC1
- IC50 (Plasmodium falciparum [1]): > 0.5 µM
- selectivity ratio (in vitro [2]): > 100
- IC50 (Plasmodium falciparum [3]): > 0.5 µM

SMILES: Cc1nc(Nc2nc3cnc(N4CCN(C)CC4)cc3[nH]2)ccc1Cl
- IC50 (Plasmodium falciparum [1]): 0.11 µM
- selectivity ratio (in vitro [2]): 500
- IC50 (Plasmodium falciparum [3]): 0.044 µM

SMILES: C[C@@H]1CC[C@H]2[C@@H](C)C(=O)O[C@@H]3O[C@@]4(C)CC[C@@H]1[C@]32OO4 [ARTEMISININ]
- IC50 (Plasmodium falciparum [10]): 0.0065 µM
- IC50 (Plasmodium falciparum [4]): 0.0166 µM
- IC50 (Plasmodium falciparum [5]): 0.0013 µM
- IC50 (Plasmodium falciparum [3]): 0.0071 µM
- IC50 (Plasmodium falciparum [6]): 0.0103 µM

SMILES: CN1CCN(c2ccc3nc(Nc4ccc(C(F)(F)F)cn4)[nH]c3c2)CC1
- AUC(0-t) [19]: 41.6 µM·h
- inhibition in vivo at 30 mg/kg (Plasmodium berghei [20]): 81.3%
- IC50 (Plasmodium falciparum [1]): 0.12 µM
- MSD (Plasmodium berghei [21]): 10 days
- Cmax [22]: 6.1 µM
- Cmax (in vivo [14]): 5 µM
- inhibition in vivo at 100 mg/kg (Plasmodium berghei [23]): 99.9%
- MSD (Plasmodium berghei [15]): 15 days
- half-life (in vivo [24]): 3.7 h
- selectivity ratio (in vitro [2]): 890
- AUC(0-t) (in vivo [25]): 19.2 µM·h
- inhibition in vivo at 50 mg/kg (Plasmodium berghei [16]): 99.9%
- IC50 (Plasmodium falciparum [3]): 0.082 µM
- half-life (in vivo [17]): 5.4 h
- MSD (Plasmodium berghei [26]): 24 days
- Cmax (in vivo [27]): 3.3 µM
- half-life [28]: 4.9 h
- AUC(0-t) (in vivo [18]): 33.7 µM·h

SMILES: CN1CCC(c2ccc3nc(Nc4ccc(C(F)(F)F)cn4)[nH]c3c2)CC1
- Vd (in vivo [29]): 16.9 L/kg
- Cmax (in vivo [30]): 0.5 µM
- fraction unbound (in vitro [7]): 0.134
- logD (physchem [8]): 3
- inhibition in vivo at 30 mg/kg (Plasmodium berghei [20]): 98.9%
- IC50 (Plasmodium falciparum [1]): 0.059 µM
- MSD (Plasmodium berghei [21]): 25 days
- microsomal CLint (in vitro [9]): < 4 µL/min/mg
- half-life (in vivo [31]): 19.2 h
- half-life (in vivo [32]): 14.9 h
- AUC (in vivo [33]): 6 µM·h
- Cmax (in vivo [14]): 8.8 µM
- hepatocyte CLint (in vitro [11]): 4.7 µL/min/1e6 cells
- MSD (Plasmodium berghei [15]): 30 days
- half-life (in vivo [24]): 9.3 h
- AUC(0-t) (in vivo [25]): 54 µM·h
- inhibition in vivo at 50 mg/kg (Plasmodium berghei [16]): 99.8%
- IC50 (Plasmodium falciparum [3]): 0.036 µM
- half-life (in vivo [17]): 18.5 h
- clearance (in vivo [34]): 14.9 mL/min/kg
- bioavailability (in vivo [35]): 79%
- Cmax (in vivo [27]): 5.2 µM
- solubility (physchem [13]): 121 µM (≈ 45.4 µg/mL)
- AUC(0-t) (in vivo [18]): 131 µM·h

SMILES: CN1CCN(Cc2ccc3nc(Nc4ccc(C(F)(F)F)cn4)[nH]c3c2)CC1
- fraction unbound (in vitro [7]): 0.275
- logD (physchem [8]): 3.2
- IC50 (Plasmodium falciparum [1]): 0.166 µM
- microsomal CLint (in vitro [9]): < 4 µL/min/mg
- hepatocyte CLint (in vitro [11]): 7.5 µL/min/1e6 cells
- IC50 (Plasmodium falciparum [3]): 0.093 µM
- solubility (physchem [13]): > 1000 µM

SMILES: CN1CCC(c2ccc3nc(Nc4ncc(C(F)(F)F)cc4Cl)[nH]c3c2)CC1
- IC50 (Plasmodium falciparum [1]): 0.13 µM
- IC50 (Plasmodium falciparum [3]): 0.08 µM

SMILES: Cc1nc(Nc2nc3ccc(N4CCN(C)CC4)cc3[nH]2)ccc1F
- IC50 (Plasmodium falciparum [1]): 0.11 µM
- IC50 (Plasmodium falciparum [10]): 0.106 µM
- selectivity ratio (in vitro [2]): > 1050
- IC50 (Plasmodium falciparum [5]): 0.0988 µM
- IC50 (Plasmodium falciparum [3]): 0.048 µM

SMILES: Cc1nc(Nc2nc3cnc(N4CCN(C)CC4)cc3[nH]2)cc(C2CC2)c1F
- fraction unbound (in vitro [7]): 0.051
- logD (physchem [8]): 3.9
- IC50 (Plasmodium falciparum [1]): 0.026 µM
- microsomal CLint (in vitro [9]): 21.8 µL/min/mg
- hepatocyte CLint (in vitro [11]): 11.3 µL/min/1e6 cells
- IC50 (Plasmodium falciparum [3]): 0.017 µM
- solubility (physchem [13]): 5.6 µM (≈ 2.14 µg/mL)

SMILES: OCCN1CCN(c2ccc3nc(Nc4ccc(C(F)(F)F)cn4)[nH]c3c2)CC1
- IC50 (Plasmodium falciparum [1]): 0.21 µM
- selectivity ratio (in vitro [2]): > 1110
- IC50 (Plasmodium falciparum [3]): 0.13 µM

SMILES: CN1CCN(c2ccc3nc(Nc4ccc(Br)cc4)[nH]c3c2)CC1
- IC50 (Plasmodium falciparum [1]): 0.39 µM
- selectivity ratio (in vitro [2]): > 1190
- IC50 (Plasmodium falciparum [3]): 0.21 µM

SMILES: FC(F)(F)c1ccc(Nc2nc3ccc(N4CCN5CCCC5C4)cc3[nH]2)nc1 (centres undefined)
- IC50 (Plasmodium falciparum [1]): 0.119 µM
- selectivity ratio (in vitro [2]): 357
- IC50 (Plasmodium falciparum [3]): 0.056 µM

SMILES: CN1CCN(c2cc(Cl)c3nc(Nc4ccc(Br)cn4)[nH]c3c2)CC1
- fraction unbound (in vitro [7]): 0.301
- logD (physchem [8]): 3
- IC50 (Plasmodium falciparum [1]): 0.16 µM
- microsomal CLint (in vitro [9]): < 4 µL/min/mg
- hepatocyte CLint (in vitro [11]): 9 µL/min/1e6 cells
- IC50 (Plasmodium falciparum [3]): 0.11 µM
- solubility (physchem [13]): > 1000 µM
